The subject of one data set is Notch2 (N2^IC). Kind of data set: Nuclear Notch2 activity in B-CLL cells by EMSA (band shift assay). The data set is classed as cell-based, human. The settings on record: B-CLL cells, 0.2 μM gliotoxin, 24 h. Here is the method: FIG. 3: Gliotoxin is a potent Notch2 trans-activation inhibitor in B-CLL cells. (A) EMSA showing the inhibition of DNA-bound Notch2IC complexes in the presence of 0.2 μg Gliotoxin. B-CLL samples (n=10) were cultured in the presence of 1 ng/ml TPA with or without 0.2 μM Gliotoxin for 24 hours. Nuclear extracts were subjected to EMSA using a oligonucleotide probe spanning a well defined CBF1/NotchIC binding site derived from the CD23a promoter. (B). Corresponding FACS analysis (plus 10 additional B-CLL samples) showing the downregulation of the Notch2 target gene CD23 as well as the induction of apoptosis of Gliotoxin treated B-CLL samples. Columnes represent the percentage of CD19^+CD23^+ (grey bars) and apoptotic cells (black bars: including early apoptotic cells single positive for AnnexinV, and late apoptotic cells double positive for AnnexinV and probidium iodide), respectively.
As drug screening model, a cell culture system was established which conserves the phenotype of freshly isolated B-CLL cells (3×10^6 B-CLL cells/ml RPMI medium+10% FCS, supplemented with 1 ng/ml of TPA). Notch2 activity in the cell nucleus is determined by means of EMSA (electrophoretic mobility shift assay) experiments, and the cell viability (Probidium iodide/annexinV) and CD23 expression (Notch2 target gene) is determined by means of FACS (flow cytometry) analyses, respectively. […]
(Mobility shift assays separate free from complexed probe on a gel.)

The subject of another data set is RL-7. Kind of data set: Apoptosis FACS in leukaemia cell line RL-7. Type of data set: cell-based. The settings on record: RL-7, 0.2 μM gliotoxin, 24 h. Here is the method: FIG. 7: (A) The apoptotic activity of gliotoxin on further B-CLL patient samples (CLL4-CLL8) is illustrated. The (non-Notch2-associated) leukaemia cell lines (or the leukaemia cell lines not characterised by ligand-independent Notch2 fragments) Jurkat (T-ALL), SH1 (hairy cell carcinoma), RL-7 and K562 (CML) are resistant to a treatment with 0.2 μM (corresponding to 60 ng/ml) of gliotoxin. Cells were incubated for 24 h+/−gliotoxin, and the percentage of apoptotic cells (probidium-iodide+/annexinV+) was determined by means of FACS analysis. In none of the 4 non-Notch2-associated cell lines indicated, the application of 0.2 μM of gliotoxin led to a significant induction of apoptosis within 24 hours. The cytotoxic effect of Gliotoxin correlates with the Notch2 activity in leukemias. (B) Corresponding EMSA showing the activity of Notch2 in B-CLL cells and in leukemic cell lines (Jurkat, SH1, RL7, and K562).

Data set [1] relates to MiaPaCa (pancreas carcinoma). The data set can be described thus: Cell count analysis MiaPaCa. Type of data set: cell-based, human. The settings on record: MiaPaCa, 25, 50, 100 and 200 nM, 24 h. The procedure: FIG. 8 a-d: Effects of gliotoxin on cell counts of various human tumour cell lines in vitro. Cell counts of a) hepatocellular carcinoma cell lines HepG2, Huh7, SNU398, Hep3b, HeLa (cervix) and the cholangiocarcinoma cell line NEC as well as b) the pancreatic cancer cell line Panc-1 and the melanoma cell lines d) MelJuso, Meljuso-Bcl-2 (+) and 607B after 72 h treatment with 200 nM gliotoxin; c-d) Cell count dose range experiments with c) pancreatic carcinoma cell lines Panc-1 and MiaPaCa as well as melanoma cell lines MelJuso, 518A2 and 607B using 25, 50 100 and 200 nM gliotoxin for 24 h. All data are given relative to control ±standard deviation.
Tumour cells were seeded at a density of 10,000 cells/well in 24-well plates. 24 h after seeding, medium containing gliotoxin was added to yield desired concentrations of gliotoxin. At time points indicated, culture medium was removed by suction. Adherent cells were washed with DPBS (Cambrex, Verviers, Belgium) and incubated with trypsin (Gibco) at 37° C. Detached cells were transferred to test tubes containing Cellpack isotonic fluid (Sysmex Europe, Bornbarch, Germany) and counted with a Coulter Z1 electronic cell counter (Beckman Coulter, Bedford, UK).

The test system of the next data set is 518A2 (melanoma). Kind of data set: Apoptosis flow cytometry (Annexin V / 7-AAD) 518A2. Type of data set: cell-based, human. Particulars: 518A2, 200 nM gliotoxin, 24 h. Here is the method:
FIG. 10 a-b: Effects of gliotoxin on Notch2 regulation and apoptosis. The melanoma cell line 518A2 (A) and the pancreatic cancer cell line Panc-1 (B) were treated with 200 nM gliotoxin or vehicle control for 24 h Notch2 activity was analysed by band shift assay. Apoptosis was measured as annexin V and 7-AAD double positivity by FACS. Data are given as percentage of apoptotic cells ±standard deviation.
Tumour cells were seeded at a density of 50,000 cells/well in 6 well plates. 24 h after seeding, medium containing gliotoxin was added to yield desired concentrations of gliotoxin. After further 24 h cells were harvested, counted and washed twice with PBS. Then, 100,000 cells were resuspended in 100 μl binding buffer and stained with Annexin V-PE and 7-AAD (both Becton Dickinson, N.J., USA) according to manufacturer's recommendations. After 20 minutes incubation time at room temperature in the dark, 400 μl binding buffer was added and immediately analyzed on a FACScalibur flow cytometer using CellQuest software (both Becton Dickinson, N.J., USA)
On the technique in general: A flow cytometer gives signals particle by particle.

Take `CN1C(=O)[C@]23CC4=CC=C[C@H](O)[C@H]4N2C(=O)[C@@]1(CO)SS3` [gliotoxin, [3R-(3α,5aβ,6β,10aα)]-2,3,5a,6-tetrahydro-6-hydroxy-3-(hydroxymethyl)-2-methyl-10H-3,10a-epi-dithiopyrazino[1,2-a]indol-1,4-dion]: the “transcriptional Notch2 activity (EMSA)” value in the data set on Notch2 (N2^IC) is listed as “dramatic loss”. Further, the “induction of apoptosis (probidium-iodide+/annexinV+)” value in the data set on RL-7 is on record as “resistant”. In addition, the “cytotoxicity in dose range experiment (cell count)” value in data set [1] is on record as “clear dose dependent cytotoxicity”. Also, the “apoptotic cells (annexin V and 7-AAD double positive)” value with 518A2 (melanoma) came out at 92%.

Source of the values: patent US7981878B2, “Tumor treatment with gliotoxin derivatives” (priority 2005, dated 2011).
